Laboratory results published in patent publication US20230263786A1, “MODULATION OF DRUG-DRUG INTERACTIONS OF VADADUSTAT” (Akebia Therapeutics, Inc., priority 2020, published 2023).
Several values for one entry are separate records, joined by “and”; a condition that tells them apart may be missing. Equal values may be shown once.

Columns and labels:
[1] = [14C]-labeled Compound 1 650 mg metabolism and excretion; assay type: in vivo, human; details: single oral 650 mg [14C]-labeled Compound 1, healthy adult males
Text: Compound 1 is metabolized via UGT, mainly producing O-glucuronide conjugates.
The urinary excretion rate of this drug and acyl glucuronide is less than 1% of the total radioactivity.

[2] = Phase I ferrous sulfate tablet interaction study; details: for Metabolite Ratio AUC(0-inf) / Metabolite Ratio AUC(0-t) / Metabolite Ratio Cmax: Metabolite/Parent; for AUC(0-inf) / AUC(0-t) / Cmax / Tmax: metabolite in plasma; for AUC(0-inf) / AUC(0-t) / Cmax: mean; for Tmax: median;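 as to all read-outs here: crossover in fasted human subjects with four-day washout between periods, plasma glucuronide metabolite pharmacokinetics, ratios computed as metabolite over parent for AUC and Cmax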
[3] = Phase I single-dose study, moderate hepatic impairment versus normal hepatic function; assay type: in vivo, human; details: single 450 mg; for AUC0-inf, plasma, total / AUC0-last, plasma, total / Cmax, plasma, total / Elimination Half-life (t1/2): mean ± SD
Description: A phase I, open-label, parallel-group, single-dose study was conducted to evaluate the pharmacokinetics (PK) of 450 mg vadadustat administered in adults with moderate hepatic impairment (Child-Pugh Class B) versus those with normal hepatic function. The pharmacokinetic (pK) parameters of Compound 1 were characterized. Safety and tolerability were assessed throughout the study.
Inclusion criteria: participants were male and female adults between 18 and 70 years of age, with either normal hepatic function or moderate hepatic impairment based on the Child-Pugh classification (Child-Pugh Class B [score 7-9]). Moderate hepatic impairment was defined by the presence and severity of elevated bilirubin levels, decreased serum albumin levels, elevated international normalized ratios >2.20, ascites, and hepatic encephalopathy.
Pharmacokinetics. […] PK parameters Ae0-72, Fe %0-72, and CL, were estimated from the urine concentration-time profiles.
8 subjects with hepatic impairment and 8 matched subjects with normal hepatic function were enrolled in the study. All subjects received a single oral 450-mg dose of vadadustat on Day 1 and were required to fast for at least 10 hours before dosing and for 4 hours after dosing.

[4] = treatment Compound 1 450 mg alone

For O=C(O)CNC(=O)c1ncc(-c2cccc(Cl)c2)cc1O[C@@H]1O[C@H](C(=O)O)[C@@H](O)[C@H](O)[C@H]1O [Compound 1-O-glucuronide], the “share of the total radioactivity (AUC0-∞) in plasma” value [1] was “about 15%”, the “Metabolite Ratio AUC(0-inf)” value ([2]; treatment Compound 1 + Iron) was 0.0943 and the “Metabolite Ratio AUC(0-t)” value ([2]; treatment Compound 1 + Iron) was 0.0935. The “Metabolite Ratio Cmax” value ([2]; treatment Compound 1 + Iron) was 0.0748, the “Metabolite Ratio AUC(0-inf)” value ([2]; treatment Compound 1 alone) was 0.104 and the “Metabolite Ratio AUC(0-t)” value ([2]; treatment Compound 1 alone) was 0.104. For the same compound, the “Metabolite Ratio Cmax” value ([2]; treatment Compound 1 alone) was 0.0848, the “AUC(0-inf)” value [2, 4] was 44500 ng·h/mL and the “AUC(0-t)” value [2, 4] was 42800 ng·h/mL. The Cmax [2, 4] was 6070 ng/mL, the Tmax [2, 4] was 4.0 h and the “AUC(0-inf)” value ([2]; treatment Compound 1 + Iron) was 19700 ng·h/mL. The “AUC(0-t)” value ([2]; treatment Compound 1 + Iron) was 18600 ng·h/mL, the Cmax ([2]; treatment Compound 1 + Iron) was 2830 ng/mL and the Tmax ([2]; treatment Compound 1 + Iron) was 5.0 h. For the same compound, the “Ae0-72, cumulative amount excreted in urine up to 72 hours” value ([3]; Moderate Hepatic Impairment) was 585 ± 125.1 mg, the “Fe%0-72, cumulative fraction excreted in urine” value ([3]; Moderate Hepatic Impairment) was 82.8% and 82.8 ± 17.69% and the “AUC0-inf, plasma, total” value ([3]; Moderate Hepatic Impairment) was 70900 ± 24300 ng·h/mL. For the same compound, the “AUC0-last, plasma, total” value ([3]; Moderate Hepatic Impairment) was 68900 ± 24200 ng·h/mL, the “Cmax, plasma, total” value ([3]; Moderate Hepatic Impairment) was 5850 ± 1500 ng/mL and the “Elimination Half-life (t1/2)” value ([3]; Moderate Hepatic Impairment) was 6.01 ± 2.1 h. For the same compound, the “Ae0-72, cumulative amount excreted in urine up to 72 hours” value ([3]; Normal Liver Function) was 473 ± 83.76 mg, the “Fe%0-72, cumulative fraction excreted in urine” value ([3]; Normal Liver Function) was 66.9% and 66.9 ± 11.84% and the “AUC0-inf, plasma, total” value ([3]; Normal Liver Function) was 63800 ± 21300 ng·h/mL. The “AUC0-last, plasma, total” value ([3]; Normal Liver Function) was 62500 ± 21300 ng·h/mL, the “Cmax, plasma, total” value ([3]; Normal Liver Function) was 6650 ± 2400 ng/mL and the “Elimination Half-life (t1/2)” value ([3]; Normal Liver Function) was 4.74 ± 1.3 h.
